Series [1] deals with T1, human Kv4.3/KChIP2.2 potassium channel (Homo sapiens, UniProt Q9UK17).
T1 construct: expressed in transfected cells
T1 sequence (Q9UK17 1-655): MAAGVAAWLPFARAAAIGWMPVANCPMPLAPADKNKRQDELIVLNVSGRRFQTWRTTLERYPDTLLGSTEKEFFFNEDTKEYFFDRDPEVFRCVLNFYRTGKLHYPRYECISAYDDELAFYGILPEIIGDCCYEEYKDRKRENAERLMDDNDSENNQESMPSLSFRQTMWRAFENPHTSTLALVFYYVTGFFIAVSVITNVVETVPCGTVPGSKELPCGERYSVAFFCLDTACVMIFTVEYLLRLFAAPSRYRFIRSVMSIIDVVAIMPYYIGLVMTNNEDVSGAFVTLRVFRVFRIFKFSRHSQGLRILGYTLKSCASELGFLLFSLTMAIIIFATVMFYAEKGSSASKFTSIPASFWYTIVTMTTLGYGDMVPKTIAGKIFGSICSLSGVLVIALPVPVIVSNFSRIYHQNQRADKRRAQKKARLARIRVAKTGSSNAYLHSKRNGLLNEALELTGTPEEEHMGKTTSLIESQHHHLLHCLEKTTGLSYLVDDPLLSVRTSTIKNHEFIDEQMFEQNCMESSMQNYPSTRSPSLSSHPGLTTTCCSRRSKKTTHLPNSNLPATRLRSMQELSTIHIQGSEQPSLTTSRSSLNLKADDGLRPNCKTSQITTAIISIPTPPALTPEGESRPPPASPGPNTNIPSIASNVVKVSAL
T1 sequence (Q9NS61 1-270 partner): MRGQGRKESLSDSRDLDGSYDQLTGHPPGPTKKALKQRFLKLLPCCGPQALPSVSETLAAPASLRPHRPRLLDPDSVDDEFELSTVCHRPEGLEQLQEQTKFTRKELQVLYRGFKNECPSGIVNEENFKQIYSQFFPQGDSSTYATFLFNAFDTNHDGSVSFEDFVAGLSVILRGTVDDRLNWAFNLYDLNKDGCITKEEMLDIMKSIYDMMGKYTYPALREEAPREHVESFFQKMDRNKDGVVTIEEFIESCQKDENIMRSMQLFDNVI
Description: Whole cell patch clamp, CHO-K1 cells stably expressing Kv4.3/KChIP2.2. In kind it is cell-based. The settings on record: CHO-K1, 1 μM. How it is done: For this experiment, a recombinant CHO-K1 cell line stably expressing the human Kv4.3/KChIP2.2 potassium channel was used.
Protocol B: The cells were cultured in 94 mm culture dishes under the culturing conditions of 5% CO2 and 37° C. Subculturing was performed every 3-4 days, by removing the media and then rising the dish with 8 ml PBS (phosphate buffered saline). The PBS was removed and 1 ml Trypsin/EDTA was added to the cells. The cells were incubated about 2 min at 37° C. or 5 min at room temperature and then the dish was rapped to detach and singularize the cells. To inactivate the enzyme 9 ml of media was added and the solution was pipetted up and down to break up clumps of cells. Part of the suspension was then transferred to a new 94 mm dish and media was added to a final volume of 8 ml. If necessary the cells could be seeded onto 35 mm or 94 mm dishes (2 ml media per 35 mm dish and 8 ml media per 94 mm dish). The media was changed every 2-3 days. The media used was the solution for culturing the cells described above. For stable cells antibiotic G418, Hygromycin, Blasticidin, or Zeocin were not added.
The preparation of cells for electrophysiological experiments was performed as described in protocol C hereunder.
Protocol C: The transfected cells and stable cells were transferred from 35 mm cell culture dishes onto coverslips using cold PBS: The media was removed and 0.3 ml of PBS (4-10° C.) was added. The cells were incubated 5 min at room temperature. The dish was rapped to detach and singularize the cells and 1.7 ml media was added and the solution pipetted up and down to break up clumps of cells. Part of the cell suspension was then transferred to a 35 mm dish with coverslips and media. The transfected cells and stable cells could also be transferred from 35 mm cell culture dishes onto coverslips using trypsin: The media was removed and the dish rinsed with 3 ml PBS. The PBS was removed and 0.3 ml 1× Trypsin/EDTA was added and the cells incubated 5 min at room temperature. The dish was rapped to detach and singularize the cells and 1.7 ml media was added and the solution pipetted up and down to break up clumps of cells. Part of the cell suspension was then transferred to a 35 mm dish with coverslips and media.
10 mM stock solutions of the compounds were prepared in DMSO. Solutions of the compounds were prepared by dilution of stock solution in bath solution. If the required stock solution volume was theoretically below 1 μl, bath solutions with higher compound concentration were used for dilution. The maximal DMSO concentration during experiments was 0.1% (v/v).
For patch clamp experiments, the following solutions in demineralized water as vehicle were used (concentration in mM).
Bath (external) solution: 4 KCl, 135 NaCl, 2 CaCl2, 1 MgCl2, 10 D(+)-Glucose, 5 HEPES, pH 7.4 (NaOH).
Pipette (internal) solution: 130 KCl, 1 MgCl2, 10 EGTA, 5 Na2ATP, 5 HEPES, pH 7.4 (KOH).
Experiments were performed using a patch clamp set-up.
Measurements were performed at room temperature (20-25° C.). […] Each cell acted as its own control. The effect of compounds on Kv4.3/KChIP2.2 mediated currents was investigated at one concentration ([…]) with two replicates each (c=1, n=2).
The test protocols are illustrated in FIG. 1 and Table 4. […] Each test protocol consisted of 4 segments.
Subsequently, 14 test pulses (series 1; FIG. 1b and Table 4b) were applied at 0.1 Hz under constant superfusion with bath solution. The protocol was initiated by a voltage jump to −100 mV (400 ms) to achieve full inactivation. Then the Kv4.3/KChIP2.2 channels were transferred to the open state by depolarization to +40 mV for 300 milliseconds (activation). Only cells generating current amplitudes between 1 nA and 50 nA were used for the experimental procedure. No or negligible rundown was observed.
Then, 36 test pulses (series 2) were applied at 0.1 Hz under constant superfusion with the compound dissolved in bath solution. […]
On the technique in general: The patch-clamp technique gives a direct electrical read-out from membranes.

Series [2] deals with hERG potassium channel (Homo sapiens, UniProt Q12809). Briefly: Whole cell patch clamp, HEK 293 T-REx HERG cells. The conditions noted are these: 10 μM.
The mark [3] stands for this setting: read-out: Kv4.3 charge in %: remaining current measured after application of the compound and relative to the blank.
Setting [4] is: read-out: Kv4.3 peak in %: remaining peak height measured after application of the compound and relative to the blank.

Read-outs that look alike come from different tables or passages of the source.

Usually melting point stands for the temperature, or range, at which the solid turns liquid.

Chain of hERG potassium channel (Q12809 whole entry): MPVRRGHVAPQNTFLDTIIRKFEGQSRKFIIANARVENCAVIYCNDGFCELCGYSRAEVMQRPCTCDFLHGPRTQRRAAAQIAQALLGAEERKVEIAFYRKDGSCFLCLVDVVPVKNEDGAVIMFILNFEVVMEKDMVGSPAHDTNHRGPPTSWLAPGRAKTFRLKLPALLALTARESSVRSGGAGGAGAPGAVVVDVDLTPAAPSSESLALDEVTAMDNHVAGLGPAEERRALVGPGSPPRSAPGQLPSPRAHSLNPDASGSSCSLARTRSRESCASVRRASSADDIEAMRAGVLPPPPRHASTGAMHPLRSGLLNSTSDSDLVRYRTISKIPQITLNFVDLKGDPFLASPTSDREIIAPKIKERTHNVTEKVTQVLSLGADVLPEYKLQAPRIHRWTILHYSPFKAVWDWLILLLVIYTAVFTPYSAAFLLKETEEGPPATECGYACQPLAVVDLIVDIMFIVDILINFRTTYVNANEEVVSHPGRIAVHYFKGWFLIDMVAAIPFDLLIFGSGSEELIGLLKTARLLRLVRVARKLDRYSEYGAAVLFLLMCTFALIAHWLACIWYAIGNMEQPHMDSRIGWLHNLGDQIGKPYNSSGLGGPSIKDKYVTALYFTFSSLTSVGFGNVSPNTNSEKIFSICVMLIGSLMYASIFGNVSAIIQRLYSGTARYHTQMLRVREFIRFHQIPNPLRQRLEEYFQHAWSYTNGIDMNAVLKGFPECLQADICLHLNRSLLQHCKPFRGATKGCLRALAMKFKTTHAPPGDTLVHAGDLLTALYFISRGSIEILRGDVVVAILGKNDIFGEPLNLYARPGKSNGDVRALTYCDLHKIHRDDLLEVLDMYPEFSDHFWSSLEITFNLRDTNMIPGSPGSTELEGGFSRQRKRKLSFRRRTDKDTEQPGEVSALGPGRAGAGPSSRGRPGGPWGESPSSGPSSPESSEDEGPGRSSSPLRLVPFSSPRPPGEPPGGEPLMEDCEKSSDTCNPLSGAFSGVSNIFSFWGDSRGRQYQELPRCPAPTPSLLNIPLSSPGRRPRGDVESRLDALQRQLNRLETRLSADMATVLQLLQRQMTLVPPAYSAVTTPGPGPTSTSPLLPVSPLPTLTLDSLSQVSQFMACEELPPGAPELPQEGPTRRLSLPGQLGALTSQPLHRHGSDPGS

For the molecule `O=C(c1cc2cc(Cl)ccc2o1)N1CCCCC1Cc1ccccc1` (stereo not drawn) [Compound 28, (2-benzyl-piperidin-1-yl)-(5-chloro-benzofuran-2-yl)-methanone], the remaining activity at 1 µM in series [1] (setting [3]) worked out at 38%; in series [1] (setting [4]), 86%. Besides, in series [2], the “hERG (%)” value came out at 6%.

Turning to `COc1ccc(CNC(=O)c2cc3cc(Cl)ccc3o2)c(O)c1` [Compound 108, 5-chloro-benzofuran-2-carboxylic acid 2-hydroxy-4-methoxy-benzylamide], the melting point fell in the range of 173.8 to 176.2 °C. Also, the remaining activity at 1 µM in series [1] (setting [3]) came out at 85%. In addition, in series [1] (setting [4]), the remaining activity at 1 µM is 99%.

Molecule `CN(C)c1ccc(CNC(=O)c2cc3cc(Cl)ccc3o2)cc1` [Compound 64, 5-chloro-benzofuran-2-carboxylic acid 4-dimethylamino-benzylamide] returned a melting point of 178.6 to 179.7 °C. The remaining activity at 1 µM in series [1] (setting [3]) was 76%. In series [1] (setting [4]), the remaining activity at 1 µM is 85%.

Take `CC(=O)Oc1ccc(CNC(=O)c2cc3cc(Cl)ccc3o2)cc1` [Compound 33, acetic acid 4-{[(5-chloro-benzofuran-2-carbonyl)-amino]-methyl}-phenyl ester]: the melting point lay in the range of 162.5 to 164.5 °C. Further, the remaining activity at 1 µM in series [1] (setting [3]) turned out to be 89%. Moreover, the remaining activity at 1 µM in series [1] (setting [4]) was 100%.

With `O=C(NC1Cc2ccccc2C1)c1cc2cc(Cl)ccc2o1` [Compound 25, 5-chloro-benzofuran-2-carboxylic acid indan-2-ylamide], the melting point fell in the range of 190.2 to 190.5 °C. Besides, in series [1] (setting [3]), the remaining activity at 1 µM is 82%. Further, in series [1] (setting [4]), the remaining activity at 1 µM was 100%.

Take `O=C(NCc1cccs1)c1cc2cc(Cl)ccc2o1` [Compound 39, 5-chloro-benzofuran-2-carboxylic acid 4-(thiophen-2-ylmethyl)-amide]: the melting point was 148.4 to 149.9 °C. Also, the remaining activity at 1 µM in series [1] (setting [3]) was 90%. The remaining activity at 1 µM in series [1] (setting [4]) stood at 91%.

On to `Cc1cccc(Cl)c1CNC(=O)c1cc2cc(Cl)ccc2o1` [Compound 62, 5-chloro-benzofuran-2-carboxylic acid 2-chloro-6-methyl-benzylamide], for which the melting point fell in the range of 168.3 to 168.7 °C. Moreover, the remaining activity at 1 µM in series [1] (setting [3]) came out at 39%. In addition, the remaining activity at 1 µM in series [1] (setting [4]) was 86%.

As to `CC(C)(C)c1ccc(CNC(=O)c2cc3cc(Cl)ccc3o2)cc1` [Compound 71, 5-chloro-benzofuran-2-carboxylic acid 4-tert-butyl-benzylamide], the melting point was in the range of 129.5 to 131.1 °C. The remaining activity at 1 µM in series [1] (setting [3]) worked out at 71%. The remaining activity at 1 µM in series [1] (setting [4]) was 95%.

The molecule `COc1ccc(CNC(=O)c2cc3ccccc3s2)c(OC)c1` [Compound 32, benzo[b]thiophene-2-carboxylic acid 2,4-dimethoxy-benzylamide] had a melting point of 134.4 to 135.3 °C. Besides, the remaining activity at 1 µM in series [1] (setting [3]) was determined as 75%. The remaining activity at 1 µM in series [1] (setting [4]) is 100%.

On to `COc1ccc(CNC(=O)c2cc3c(C(C)=O)ccc(OC)c3o2)c(OC)c1` [Compound 13, 4-acetyl-7-methoxy-benzofuran-2-carboxylic acid 2,4-dimethoxy-benzylamide], for which the melting point was 148.2 to 150.3 °C. In addition, the remaining activity at 1 µM in series [1] (setting [3]) is 86%. Besides, the remaining activity at 1 µM in series [1] (setting [4]) was 99%.

Take `O=C(NCc1ccc(-c2cccs2)cc1)c1cc2cc(Cl)ccc2o1` [Compound 34, 5-chloro-benzofuran-2-carboxylic acid 4-thiophen-2-yl-benzylamide]: the melting point fell in the range of 173.5 to 175 °C. Also, the remaining activity at 1 µM in series [1] (setting [3]) came to 90%. The remaining activity at 1 µM in series [1] (setting [4]) was 98%.

As to `Cc1ccc(CNC(=O)c2cc3cc(Cl)ccc3o2)cc1` [Compound 36, 5-chloro-benzofuran-2-carboxylic acid 4-methyl-benzylamide], the melting point was in the range of 161.9 to 162.9 °C. For the same molecule, the remaining activity at 1 µM in series [1] (setting [3]) turned out to be 72%. In addition, in series [1] (setting [4]), the remaining activity at 1 µM came to 89%.

For `COc1ccc(NC(=O)c2cc3cc(Cl)ccc3o2)c(OC)c1` [Compound 24, 5-chloro-benzofuran-2-carboxylic acid (2,4-dimethoxy-phenyl)-amide], the melting point is 161.6 to 163.3 °C. Moreover, the remaining activity at 1 µM in series [1] (setting [3]) was determined as 85%. Also, the remaining activity at 1 µM in series [1] (setting [4]) is 102%.

For the molecule `COc1ccc(CNC(=O)c2cnc3ccccc3c2)c(OC)c1` [Compound 42, quinolin-3-carboxylic acid 2,4-dimethoxy-benzylamide], the melting point was 136.3 °C. Moreover, in series [1] (setting [3]), the remaining activity at 1 µM was 89%. For the same molecule, the remaining activity at 1 µM in series [1] (setting [4]) was found to be 98%.

In turn, `O=C(c1cc2cc(Cl)ccc2o1)N1CCC(c2ccccc2)CC1` [Compound 38, (5-chloro-benzofuran-2-yl)-(4-phenyl-piperidin-1-yl)-methanone] yielded a melting point of 101 to 101.6 °C. In addition, the remaining activity at 1 µM in series [1] (setting [3]) is 89%. Moreover, in series [1] (setting [4]), the remaining activity at 1 µM stood at 99%.

`CN(C)CC(NC(=O)c1cc2cc(Cl)ccc2o1)c1ccccc1` (stereo not drawn) [Compound 49, 5-chloro-benzofuran-2-carboxylic acid (2-dimethylamino-1-phenyl-ethyl)-amide]: the melting point was in the range of 60.2 to 60.4 °C. In series [1] (setting [3]), the remaining activity at 1 µM is 85%. Besides, the remaining activity at 1 µM in series [1] (setting [4]) turned out to be 98%.

The molecule `COc1ccc(CC(=O)Nc2cc3ccccc3o2)c(OC)c1` [Compound 22, N-benzofuran-2-yl-2-(2,4-dimethoxy-phenyl)-acetamide] gave a melting point of 126.4 to 128.2 °C. The remaining activity at 1 µM in series [1] (setting [3]) amounted to 90%. Moreover, in series [1] (setting [4]), the remaining activity at 1 µM amounted to 100%.

For `O=C(c1cc2cc(Cl)ccc2o1)N1CCc2ccccc2C1` [Compound 27, (5-chloro-benzofuran-2-yl)-(3,4-dihydro-1H-isoquinolin-2-yl)-methanone], the melting point is 127.7 to 129.1 °C. Besides, in series [1] (setting [3]), the remaining activity at 1 µM is 59%. Also, the remaining activity at 1 µM in series [1] (setting [4]) was 86%.

The record behind these values is patent US20080039442A1, “Compounds With Kv4 Ion Channel Activity” (Devgen NV, priority 2004, published 2008).
